Data on 27 compounds can be found in PubChem BioAssay AID336 (DTP/NCI, 2004).

The test system of the assay is BDF1 mice, P388/VCR leukemia ip, median survival T/C. Nature of the assay: NCI In Vivo Anticancer Drug Screen. Data for tumor model P388 Leukemia resistant to Vincristine; NSC 67574 (intraperitoneal) in B6D2F1 (BDF1) mice. To be noted: endpoint: median survival time, higher = longer survival. How it is done:
The antitumor activity of compounds was measured in mice bearing transplantable tumors. Survival or tumor size were measured and the results are expressed as the measurement made in the treated group (T) divided by the measurement made in the vehicle treated control group (C). The tumor model used in this assay is P388 Leukemia resistant to Vincristine; NSC 67574 (intraperitoneal) in B6D2F1 (BDF1) mice

Setting [1] is: dose: 5.0 mg/kg/injection, schedule: Q01DX010 (ip), vehicle: saline.
Where [2] appears, read: dose: 25.0 mg/kg/injection, schedule: Q01DX010 (ip), vehicle: saline.
The mark [3] stands for this setting: dose: 50.0 mg/kg/injection, schedule: Q01DX010 (ip), vehicle: saline.
The mark [4] stands for this setting: dose: 100.0 mg/kg/injection, schedule: Q01DX010 (ip), vehicle: saline.
[5] abbreviates: dose: 6.25 mg/kg/injection, schedule: Q01DX010 (ip), vehicle: saline.
The mark [6] stands for this setting: dose: 62.5 mg/kg/injection, schedule: Q01DX010 (ip), vehicle: saline.
Where [7] appears, read: dose: 125.0 mg/kg/injection, schedule: Q01DX010 (ip), vehicle: saline.
Where [8] appears, read: dose: 250.0 mg/kg/injection, schedule: Q01DX010 (ip), vehicle: saline.
Where [9] appears, read: dose: 500.0 mg/kg/injection, schedule: Q01DX010 (ip), vehicle: saline.
[10] abbreviates: dose: 2.5 mg/kg/injection, schedule: Q01DX010 (ip), vehicle: saline.
The mark [11] stands for this setting: dose: 0.13 mg/kg/injection, schedule: Q01DX010 (ip), vehicle: saline.

Values joined by “and” are separate entries in the source; they are usually repeats but may differ in a detail not shown here. Identical values can stand only once. Inconclusive results and toxic doses are left out.

Take `Cc1cc(N(CCCl)CCCl)ccc1N=Nc1ccccc1C(=O)O`: under setting [1], the T/C is 91 % of control and 112 % of control.
For `CSc1ncnc2nc[nH]c12`, the T/C was 104 % of control and 107 % of control under setting [2]; 103 % of control and 116 % of control under setting [3]; 112 % of control and 115 % of control under setting [4]; 111 % of control and 112 % of control (dose: 200.0 mg/kg/injection, schedule: Q01DX010 (ip), vehicle: saline).
Regarding `CS(=O)(=O)OCCCCOS(C)(=O)=O`, the T/C is 88 % of control and 96 % of control under setting [5]; 92 % of control under setting [2]; 96 % of control under setting [3].
In the case of `Nc1nncs1`, the T/C is, setting by setting: (dose: 64.8 mg/kg/injection, schedule: Q04DX003 (ip), vehicle: saline) 101 % of control; (dose: 180.0 mg/kg/injection, schedule: Q04DX003 (ip), vehicle: saline) 151 % of control.
As to `c1ccc(CCSc2ncnc3nc[nH]c23)cc1`, the T/C is 88 % of control under setting [6], 88 % of control under setting [7], 96 % of control under setting [8] and 107 % of control under setting [9].
Regarding `O=CCC(O)C(O)C(O)CO` (centres undefined), the T/C reads like this: under setting [7], 88 % of control; under setting [8], 88 % of control and 92 % of control; under setting [9], 92 % of control and 100 % of control.
Regarding `O=C(Nc1ccc(C2=NCCN2)cc1)c1cc(C(=O)Nc2ccc(C3=NCCN3)cc2)cc([N+](=O)[O-])c1`, the T/C runs as follows: (dose: 167.0 mg/kg/injection, schedule: Q01DX010 (ip), vehicle: saline) 95 % of control; under setting [8], 100 % of control; (dose: 375.0 mg/kg/injection, schedule: Q01DX010 (ip), vehicle: saline) 95 % of control; (dose: 512.0 mg/kg/injection, schedule: Q01DX010 (ip), vehicle: saline) 100 % of control.
For `COc1cc(-c2ccc(Nc3ccccc3C(=O)O)c(OC)c2)ccc1Nc1ccccc1C(=O)O`, under setting [4], the T/C is 150 % of control.
Take `CC[C@](O)(C(=O)O)c1cc2n(c(=O)c1CO)Cc1cc3ccccc3nc1-2`: the T/C runs as follows: (dose: 14.4 mg/kg/injection, schedule: Q04DX003 (ip), vehicle: saline) 155 % of control; (dose: 24.0 mg/kg/injection, schedule: Q04DX003 (ip), vehicle: saline) 180 % of control; (dose: 40.0 mg/kg/injection, schedule: Q04DX003 (ip), vehicle: saline) 102 % of control; (dose: 66.7 mg/kg/injection, schedule: Q04DX003 (ip), vehicle: saline) 161 % of control.
Take `Nc1nc(SCc2ccccc2)c2[nH]cnc2n1`: the T/C is, setting by setting: (dose: 8.0 mg/kg/injection, schedule: Q01DX010 (ip), vehicle: saline) 100 % of control; (dose: 16.0 mg/kg/injection, schedule: Q01DX010 (ip), vehicle: saline) 95 % of control and 100 % of control; (dose: 32.0 mg/kg/injection, schedule: Q01DX010 (ip), vehicle: saline) 104 % of control and 109 % of control; (dose: 64.0 mg/kg/injection, schedule: Q01DX010 (ip), vehicle: saline) 95 % of control and 100 % of control.
Regarding `N=[N+]=CC(=O)OCC(N)C(=O)O` (centres undefined), the T/C runs as follows: (dose: 3.13 mg/kg/injection, schedule: Q01DX010 (ip), vehicle: saline) 152 % of control; under setting [5], 165 % of control.
On to `O=c1[nH]cc(F)c(=O)[nH]1`, for which the T/C under setting [10] was 155 % of control; the T/C (dose: 10.0 mg/kg/injection, schedule: Q01DX010 (ip), vehicle: saline) is 200 % of control; the T/C (dose: 20.0 mg/kg/injection, schedule: Q01DX010 (ip), vehicle: saline) is 116 % of control and 235 % of control; the T/C (dose: 21.6 mg/kg/injection, schedule: Q04DX003 (ip), vehicle: saline) was 154 % of control; the T/C (dose: 36.0 mg/kg/injection, schedule: Q04DX003 (ip), vehicle: saline) was 188 % of control; the T/C (dose: 60.0 mg/kg/injection, schedule: Q04DX003 (ip), vehicle: saline) is 252 % of control. Further, the T/C (dose: 100.0 mg/kg/injection, schedule: Q04DX003 (ip), vehicle: saline) was 270 % of control.
Take `COc1cc2c[n+](C)c3c4cc5c(cc4ccc3c2cc1OC)OCO5`: the T/C (dose: 43.2 mg/kg/injection, schedule: Q04DX003 (ip), vehicle: Klucel (hydroxypropylcellulose) (HPC)) was 106 % of control; the T/C (dose: 72.0 mg/kg/injection, schedule: Q04DX003 (ip), vehicle: Klucel (hydroxypropylcellulose) (HPC)) was 108 % of control; the T/C (dose: 120.0 mg/kg/injection, schedule: Q04DX003 (ip), vehicle: Klucel (hydroxypropylcellulose) (HPC)) was 106 % of control; the T/C (dose: 200.0 mg/kg/injection, schedule: Q04DX003 (ip), vehicle: Klucel (hydroxypropylcellulose) (HPC)) was 109 % of control.
With `C1CN1c1nc(N2CC2)nc(N2CC2)n1`, the T/C reads like this: under setting [11], 88 % of control and 108 % of control; (dose: 0.5 mg/kg/injection, schedule: Q01DX010 (ip), vehicle: saline) 152 % of control and 228 % of control.
Regarding `O=C(Nc1cccc(NC(=O)Nc2cccc(C3=NCCN3)c2)c1)Nc1cccc(C2=NCCN2)c1`, the T/C reads like this: (dose: 40.0 mg/kg/injection, schedule: Q01DX010 (ip), vehicle: saline) 154 % of control; (dose: 90.0 mg/kg/injection, schedule: Q01DX010 (ip), vehicle: saline) 118 % of control.
Consider `CS(=O)(=O)OCCCl`, for which the T/C is 95 % of control and 100 % of control (dose: 37.5 mg/kg/injection, schedule: Q01DX010 (ip), vehicle: saline); 95 % of control and 100 % of control (dose: 75.0 mg/kg/injection, schedule: Q01DX010 (ip), vehicle: saline).
As for `O[C@H](CN1CC1)[C@@H](O)CN1CC1`, the T/C was 180 % of control and 200 % of control under setting [11]; 150 % of control and 241 % of control (dose: 0.25 mg/kg/injection, schedule: Q01DX010 (ip), vehicle: saline).
`O=C(Nc1ccc(C2=NCCCN2)cc1)c1ccc(C(=O)Nc2ccc(C3=NCCCN3)cc2)cc1`: the T/C is, setting by setting: (dose: 20.0 mg/kg/injection, schedule: Q04DX003 (ip), vehicle: Klucel (hydroxypropylcellulose) (HPC)) 158 % of control; (dose: 33.3 mg/kg/injection, schedule: Q04DX003 (ip), vehicle: Klucel (hydroxypropylcellulose) (HPC)) 101 % of control.
Consider `COS(C)(=O)=O`, for which the T/C (dose: 12.5 mg/kg/injection, schedule: Q01DX010 (ip), vehicle: saline) is 123 % of control and the T/C under setting [2] was 103 % of control.
With `C[n+]1ccc(Nc2ccc(NC(=O)c3ccc(Nc4cc[n+](C)c5ccc(N)cc45)cc3)cc2)cc1`, where the note is “dose: 3.24 mg/kg/injection, schedule: Q04DX003 (ip), vehicle: water”, the T/C is 116 % of control.
Take `COc1cc([C@@H]2c3cc4c(cc3[C@@H](OC3OC5CO[C@@H](c6cccs6)OC5C(O)C3O)[C@H]3COC(=O)[C@H]23)OCO4)cc(OC)c1O` (some centres undefined): the T/C (dose: 5.4 mg/kg/injection, schedule: Q04DX003 (ip), vehicle: clinical formulation) is 153 % of control and the T/C (dose: 15.0 mg/kg/injection, schedule: Q04DX003 (ip), vehicle: clinical formulation) was 172 % of control.
For the compound `N#[N+]c1cnc([O-])[nH]c1=O`, under setting [1], the T/C is 156 % of control.
On to `N[C@@H](Cc1ccc(N(CCCl)CCCl)cc1)C(=O)O`, for which the T/C reads like this: (dose: 3.6 mg/kg/injection, schedule: Q01DX001 (ip), vehicle: saline) 184 % of control; (dose: 6.0 mg/kg/injection, schedule: Q01DX001 (ip), vehicle: saline) 181 % of control; (dose: 10.0 mg/kg/injection, schedule: Q01DX001 (ip), vehicle: saline) 191 % of control; (dose: 16.7 mg/kg/injection, schedule: Q01DX001 (ip), vehicle: saline) 161 % of control.
For the compound `Oc1cc(CN(CCCl)CCCl)c(O)cc1CN(CCCl)CCCl`, the T/C (dose: 0.31 mg/kg/injection, schedule: Q01DX010 (ip), vehicle: saline) was 112 % of control; the T/C under setting [10] is 117 % of control; the T/C under setting [1] was 100 % of control.
For `CC1CN=C(c2ccc(NC(=O)c3ccc(C(=O)Nc4ccc(C5=NCC(C)N5)cc4)cc3)cc2)N1` (centres undefined), the T/C (dose: 22.0 mg/kg/injection, schedule: Q01DX010 (ip), vehicle: saline) is 113 % of control and the T/C (dose: 33.0 mg/kg/injection, schedule: Q01DX010 (ip), vehicle: saline) was 109 % of control.
Turning to `CCn1cnc2c(=S)nc[nH]c21`, the T/C is, setting by setting: (dose: 15.6 mg/kg/injection, schedule: Q01DX010 (ip), vehicle: saline) 100 % of control and 109 % of control; (dose: 31.3 mg/kg/injection, schedule: Q01DX010 (ip), vehicle: saline) 100 % of control; under setting [6], 100 % of control; under setting [7], 95 % of control.
As to `O=C1N[C@@H]([C@H]2CC[C@H](Cl)CN2)C(=O)N[C@H]1[C@H]1CC[C@H](Cl)CN1`, the T/C is 212 % of control (dose: 2.4 mg/kg/injection, schedule: Q04DX003 (ip), vehicle: saline) and 225 % of control (dose: 4.0 mg/kg/injection, schedule: Q04DX003 (ip), vehicle: saline).
